Data: ChEMBL document CHEMBL1759932, “Design, synthesis and structure-activity relationships of (indo-3-yl) heterocyclic derivatives as agonists of the CB1 receptor. Discovery of a clinical candidate” (Bioorg Med Chem Lett, 2011)

Experiments:
[1] = Volume of distribution at steady state in ICR mouse; assay type: ADME, organism-based; conditions: in vivo, read-out: Vdss
[2] = Half life in ICR mouse; assay type: ADME, organism-based; conditions: in vivo
[3] = Clearance in ICR mouse; assay type: ADME, organism-based; conditions: in vivo
[4] = Ratio of Cmax in brain to plasma in ICR mouse; assay type: ADME; conditions: brain and plasma
[5] = Intrinsic clearance in human liver microsomes; assay type: ADME, Microsome
[6] = Intrinsic clearance in rat liver microsomes; assay type: ADME, Microsome
[7] = Intrinsic clearance in mouse hepatic microsomes; assay type: ADME, Microsome; conditions: liver microsomes
[8] = Half life in Beagle dog; assay type: ADME, organism-based, Canis lupus familiaris; conditions: in vivo
[9] = Volume of distribution at steady state in Wistar rat; assay type: ADME, organism-based; conditions: in vivo, read-out: Vdss
[10] = Volume of distribution at steady state in Beagle dog; assay type: ADME, organism-based, Canis lupus familiaris; conditions: in vivo, read-out: Vdss
[11] = Clearance in Wistar rat; assay type: ADME, organism-based; conditions: in vivo
[12] = Clearance in Beagle dog; assay type: ADME, organism-based, Canis lupus familiaris; conditions: in vivo
[13] = Intrinsic clearance in dog hepatic microsomes; assay type: ADME, Canis lupus familiaris, Liver, Microsome
[14] = Half life in Wistar rat; assay type: ADME, organism-based; conditions: in vivo

| SMILES | microsomal CLint [5] [µL/min/mg] | microsomal CLint [6] [µL/min/mg] | also measured |
| --- | --- | --- | --- |
| CCc1cccc2c(-c3nsc(CN4CCCC4)n3)cn(CC3CCCCC3)c12.Cl | – | – | Vd [1]: 1.4 L/kg; half-life [2]: 1.2 h; clearance [3]: 28 mL/min/kg; Kp [4]: 0.05 |
| COCCN(C)Cc1csc(-c2cn(CC3CCCCC3)c3c(Cl)cccc23)n1 | 36 | 22 | – |
| CN(CCO)Cc1csc(-c2cn(CC3CCOCC3)c3c(Cl)cccc23)n1 | < 16 | 167 | – |
| CC(C)N(CCO)Cc1csc(-c2cn(CC3CCOCC3)c3c(Cl)cccc23)n1 | 161 | > 160 | microsomal CLint [7]: 176 µL/min/mg; half-life [8]: 3 h; Vd [9]: 15 L/kg; Vd [1]: 11.3 L/kg; half-life [2]: 1.38 h; Vd [10]: 5 L/kg; clearance [11]: 127 mL/min/kg; clearance [3]: 159 mL/min/kg; clearance [12]: 28 mL/min/kg; CL [13]: 0.131 mL/min/kg; half-life [14]: 1.6 h; Kp [4]: 3.9 |
| OC1CCN(Cc2csc(-c3cn(CC4CCOCC4)c4c(Cl)cccc34)n2)CC1 | 12 | 16 | – |
| COC1CCN(Cc2csc(-c3cn(CC4CCOCC4)c4c(Cl)cccc34)n2)CC1 | 80.4 | > 270 | – |
| Clc1cccc2c(-c3nc(CN4CCOCC4)cs3)cn(CC3CCOCC3)c12 | 97.9 | > 270 | – |
| OCCN(CCO)Cc1csc(-c2cn(CC3CCOCC3)c3c(Cl)cccc23)n1 | 111 | > 270 | – |
| CCc1sc(-c2cn(CC3CCOCC3)c3c(Cl)cccc23)nc1CN(CC)CCO | 114 | > 270 | – |
